Results: patent US11096924B2, “Combination therapies using immuno-dash inhibitors and PGE2 antagonists” (Trustees of Tufts College, priority 2016, dated 2021)
“And” between values parts separate entries of the source, which are not always exact repeats. Identical values can stand only once. Like-named read-outs stand apart in the source and are kept apart here. Blank lines part the entries; values can stand above or below the compound they belong to.

How the values were obtained:
[1] = target: recombinant human dipeptidyl peptidase IV (DPPIV) (Homo sapiens (Human), UniProt P27487); test: In vitro inhibition assay, dipeptidyl peptidase IV; assay type: biochemical
Chain of recombinant human dipeptidyl peptidase IV (DPPIV) (P27487 whole entry): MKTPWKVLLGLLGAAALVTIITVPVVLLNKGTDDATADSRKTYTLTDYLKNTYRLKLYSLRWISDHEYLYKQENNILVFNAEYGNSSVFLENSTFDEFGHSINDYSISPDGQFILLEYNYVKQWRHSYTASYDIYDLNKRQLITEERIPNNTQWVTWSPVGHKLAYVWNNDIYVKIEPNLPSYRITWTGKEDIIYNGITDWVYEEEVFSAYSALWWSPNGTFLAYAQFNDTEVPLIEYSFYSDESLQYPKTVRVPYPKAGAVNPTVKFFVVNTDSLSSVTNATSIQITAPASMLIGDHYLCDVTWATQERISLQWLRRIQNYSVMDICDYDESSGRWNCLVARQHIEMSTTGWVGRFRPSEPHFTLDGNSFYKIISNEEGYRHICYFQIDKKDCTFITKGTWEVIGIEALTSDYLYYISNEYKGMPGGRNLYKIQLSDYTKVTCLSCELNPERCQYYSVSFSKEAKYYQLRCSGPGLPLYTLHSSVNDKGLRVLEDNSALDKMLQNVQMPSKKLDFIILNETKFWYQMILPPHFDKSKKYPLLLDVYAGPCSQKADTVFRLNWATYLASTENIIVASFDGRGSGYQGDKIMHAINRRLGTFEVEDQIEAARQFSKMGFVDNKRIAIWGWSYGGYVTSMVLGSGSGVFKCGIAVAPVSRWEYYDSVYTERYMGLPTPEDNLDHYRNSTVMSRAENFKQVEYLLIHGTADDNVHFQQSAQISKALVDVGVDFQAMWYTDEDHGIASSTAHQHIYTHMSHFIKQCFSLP

[2] = target: recombinant human dipeptidyl peptidase II (DPPII) (Homo sapiens (Human), UniProt Q9UHL4); test: In vitro inhibition assay, dipeptidyl peptidase II; assay type: biochemical
DPP7 = DPP7 (Homo sapiens (Human), UniProt Q9UHL4); test: EnPlex assay DPP7; assay type: biochemical
DPP4 = DPP4 (Homo sapiens (Human), UniProt P27487); test: EnPlex assay DPP4; assay type: biochemical
Chain of DPP4 (P27487 whole entry): as above

[3] = Oral PK profile in mice, plasma drug concentrations; assay type: in vivo, BALB/c mice; details: 3 mg/kg oral gavage, individual mice #1-#3
Description: Example 8. […] Drugs dissolved in pH 2 water at 0.3 mg/mL. […] 2. Plasma prepared by centrifugation. 3. Drug concentrations measured by LCMS.

[4] = target: recombinant human fibroblast activation protein (FAP) (Homo sapiens (Human), UniProt Q12884); test: In vitro inhibition assay, fibroblast activation protein; assay type: biochemical
Chain of recombinant human fibroblast activation protein (FAP) (Q12884 whole entry): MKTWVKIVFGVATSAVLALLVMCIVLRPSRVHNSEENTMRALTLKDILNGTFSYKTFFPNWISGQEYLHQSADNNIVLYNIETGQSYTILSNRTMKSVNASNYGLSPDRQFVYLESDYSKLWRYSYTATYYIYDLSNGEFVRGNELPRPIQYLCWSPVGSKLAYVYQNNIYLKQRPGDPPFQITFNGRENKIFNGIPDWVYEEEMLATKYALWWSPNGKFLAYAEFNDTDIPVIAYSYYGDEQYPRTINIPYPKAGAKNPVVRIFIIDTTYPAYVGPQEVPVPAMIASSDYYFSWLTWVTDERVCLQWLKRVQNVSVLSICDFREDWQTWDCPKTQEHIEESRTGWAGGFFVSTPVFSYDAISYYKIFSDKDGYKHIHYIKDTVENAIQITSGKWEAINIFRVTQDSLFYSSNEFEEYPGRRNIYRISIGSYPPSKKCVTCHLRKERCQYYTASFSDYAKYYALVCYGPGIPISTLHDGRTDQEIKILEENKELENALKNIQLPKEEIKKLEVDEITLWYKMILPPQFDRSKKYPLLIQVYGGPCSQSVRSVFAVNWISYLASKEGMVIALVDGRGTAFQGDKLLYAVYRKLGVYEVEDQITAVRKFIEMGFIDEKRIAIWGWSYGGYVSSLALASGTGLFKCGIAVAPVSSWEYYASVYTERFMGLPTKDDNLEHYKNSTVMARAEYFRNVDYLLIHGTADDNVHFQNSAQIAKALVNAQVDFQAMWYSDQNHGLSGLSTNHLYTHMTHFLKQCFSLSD

[5] = target: recombinant human dipeptidyl peptidase 8 (DPP8) (Homo sapiens (Human), UniProt Q6V1X1); test: In vitro inhibition assay, dipeptidyl peptidase 8; assay type: biochemical
Chain of recombinant human dipeptidyl peptidase 8 (DPP8) (Q6V1X1 whole entry): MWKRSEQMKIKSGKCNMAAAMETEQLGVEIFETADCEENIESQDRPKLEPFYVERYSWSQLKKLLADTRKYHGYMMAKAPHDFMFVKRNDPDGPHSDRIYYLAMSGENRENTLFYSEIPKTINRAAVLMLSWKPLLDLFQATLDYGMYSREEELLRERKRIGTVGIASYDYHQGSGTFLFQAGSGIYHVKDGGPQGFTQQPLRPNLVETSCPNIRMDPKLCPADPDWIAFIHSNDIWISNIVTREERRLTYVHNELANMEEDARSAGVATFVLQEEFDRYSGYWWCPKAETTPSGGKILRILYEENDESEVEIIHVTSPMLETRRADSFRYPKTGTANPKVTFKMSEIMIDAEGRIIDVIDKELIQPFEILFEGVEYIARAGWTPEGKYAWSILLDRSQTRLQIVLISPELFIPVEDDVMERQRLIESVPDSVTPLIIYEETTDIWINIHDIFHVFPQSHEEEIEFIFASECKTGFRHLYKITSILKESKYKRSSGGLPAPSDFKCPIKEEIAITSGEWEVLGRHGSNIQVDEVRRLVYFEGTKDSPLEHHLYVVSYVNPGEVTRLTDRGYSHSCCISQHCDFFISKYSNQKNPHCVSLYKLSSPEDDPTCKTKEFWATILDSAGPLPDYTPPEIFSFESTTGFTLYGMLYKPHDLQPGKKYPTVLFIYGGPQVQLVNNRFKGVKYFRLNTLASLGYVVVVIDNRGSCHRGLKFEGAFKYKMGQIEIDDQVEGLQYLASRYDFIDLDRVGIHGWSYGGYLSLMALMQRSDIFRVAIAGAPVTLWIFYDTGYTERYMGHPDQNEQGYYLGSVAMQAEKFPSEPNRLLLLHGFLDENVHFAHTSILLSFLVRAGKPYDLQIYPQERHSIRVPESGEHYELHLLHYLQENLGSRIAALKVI

macrophages = test: Pyroptosis of macrophages in cell culture; assay type: cell-based; details: Macrophage; Example 2 table; unit inferred
RAW 264.7 WT cells = test: Pyroptosis in RAW 264.7 WT cells; assay type: cell-based; details: Mus musculus, RAW264.7
MV4; 11 Luc-Neo = test: Pyroptosis in MV4;11 Luc-Neo cells; assay type: cell-based; details: Homo sapiens
THP-1 sgGFP = test: Pyroptosis in THP-1 sgGFP cells; assay type: cell-based; details: Homo sapiens
[6] = Maximum tolerated dose study (single dose) in Sprague Dawley rats; assay type: in vivo; details: SD rats, based on serum drug levels, with Pyrrophenone or AACOCF3
Description: Bars show the MTD single dose in SD rats prior to seeing animal death. […] See also FIG. 17 for a similar comparison using cPLA2 inhibitors instead of COX inhibitors.
Bars show the MTD single dose in SD rats prior to seeing animal death. Based on serum drug levels, the addition of a cPLA2 inhibitor to the I-DASH inhibitor increases that MTD dose by at least 20-fold.
Bars show the MTD single dose in SD rats prior to seeing animal death.

[7] = test system: MB49 murine urothelial carcinoma cell line; test: MB49 efficacy studies in tumor bearing mice; assay type: in vivo
[8] = phase I trial of talabostat and rituximab in rituximab-resistant lymphoma; cited from earlier work
[9] = male, BALB/c, mouse, plasma, oral, 3 mg/kg, 5 min post-dose
[10] = male, BALB/c, mouse, plasma, oral, 3 mg/kg, 20 min post-dose
[11] = male, BALB/c, mouse, plasma, oral, 3 mg/kg, 30 min post-dose
[12] = male, BALB/c, mouse, plasma, oral, 3 mg/kg, 40 min post-dose
[13] = male, BALB/c, mouse, plasma, oral, 3 mg/kg, 120 min post-dose
[14] = male, BALB/c, mouse, plasma, oral, 3 mg/kg, 240 min post-dose

SMILES: CC1([C@H](N)C(=O)N2CCC[C@H]2B(O)O)CCCC1 (relative stereo) [4175CP]
IC50 [1]: 2.9 nM
IC50 ([2]; DPP2): 9.2 nM

SMILES: N[C@H](C(=O)N1CCC[C@H]1B(O)O)C12CC3CC(CC(O)(C3)C1)C2 (relative stereo) [ARI-3102A]
IC50 ([2]; DPP2): 81 nM
IC50 (DPP7): > 100 nM

SMILES: N[C@H](C(=O)N1CCC[C@H]1B(O)O)C12CC3CC(CC(Cl)(C3)C1)C2 (relative stereo) [ARI-3102C]
IC50 [1]: 6 nM
IC50 (DPP4): 0.006 nM

SMILES: CC1([C@H](N)C(=O)N2CCC[C@H]2B(O)O)CCCCC1 (relative stereo) [ARI-4175CH]
IC50 [1]: 2.8 nM
IC50 ([2]; DPP2): 54 nM
IC50 (DPP4): 0.005 nM
IC50 (DPP7): > 100 nM
concentration in Plasma ([3]; 5 min post-dose): 230 nM and 420 nM
concentration in Plasma ([3]; 10 min post-dose): 250 nM and 90 nM
concentration in Plasma ([3]; 20 min post-dose): 230 nM and 270 nM
concentration in Plasma ([3]; 30 min post-dose): 130 nM
concentration in Plasma ([3]; 40 min post-dose): 250 nM and 190 nM
concentration in Plasma ([3]; 60 min post-dose): 0 nM and 90 nM
concentration in Plasma ([3]; 120 min post-dose): 70 nM and 90 nM
concentration in Plasma ([3]; 240 min post-dose): 10 nM
concentration at 5 min [3, 9]: 280 nM
concentration at 20 min [3, 10]: 230 nM
concentration at 30 min [3, 11]: 240 nM
concentration at 40 min [3, 12]: 170 nM
concentration at 120 min [3, 13]: 70 nM
concentration at 240 min [3, 14]: 10 nM
Average [G-CSF] at 6 hrs (G-CSF; 5 μg/animal PO): 1100 pg/mL
Average [G-CSF] at 6 hrs (G-CSF; 20 μg/animal PO): 51000 pg/mL
Average [G-CSF] at 6 hrs (G-CSF; 20 μg/animal SC): 60000 pg/mL

SMILES: CC(C)(F)[C@H](N)C(=O)N1CCC[C@H]1B(O)O (relative stereo) [ARI-4268]
IC50 [1]: 12 nM
IC50 ([2]; DPP2): 68 nM

SMILES: N[C@H](C(=O)N1CCC[C@H]1B(O)O)C12CC3CC(CC(C3)C1)C2 (relative stereo) [ARI-5544, Gly(1-adamantyl)-boroPro]
IC50 ([2]; DPP2): 27 nM
IC50 ([2]; compound incubated at room temperature overnight at pH 2.0 or pH 7.4 prior to the assays, read-out: DPPII IC50): 21 nM
concentration in Plasma ([3]; 5 min post-dose): 110 nM and 220 nM
concentration in Plasma ([3]; 20 min post-dose): 170 nM and 180 nM
concentration in Plasma ([3]; 30 min post-dose): 220 nM and 170 nM
concentration in Plasma ([3]; 40 min post-dose): 130 nM and 140 nM
concentration in Plasma ([3]; 60 min post-dose): 110 nM and 90 nM
concentration in Plasma ([3]; 120 min post-dose): 30 nM and 50 nM
concentration in Plasma ([3]; 240 min post-dose): 10 nM and 20 nM
concentration at 5 min [3, 9]: 160 nM
concentration at 10 min ([3]; male, BALB/c, mouse, plasma, oral, 3 mg/kg, 10 min post-dose): 270 nM
concentration at 20 min [3, 10]: 140 nM
concentration at 30 min [3, 11]: 110 nM
concentration at 40 min [3, 12]: 120 nM
concentration at 60 min ([3]; male, BALB/c, mouse, plasma, oral, 3 mg/kg, 60 min post-dose): 80 nM
concentration at 120 min [3, 13]: 30 nM
concentration at 240 min [3, 14]: 20 nM
Average [G-CSF] at 6 hrs (G-CSF; 5 μg/animal PO): 650 pg/mL
Average [G-CSF] at 6 hrs (G-CSF; 20 μg/animal PO): 30000 pg/mL
Average [G-CSF] at 6 hrs (G-CSF; 20 μg/animal SC): 73000 pg/mL

SMILES: CC1([C@H](N)C(=O)N2CCC[C@H]2B(O)O)CC1 (relative stereo) [compound 4367]
IC50 [1]: 1.4 nM
IC50 ([2]; DPP2): 34 nM
IC50 [4]: 350 nM

SMILES: CC1(C)CCCN[C@@H]1C(=O)N1CCC[C@H]1B(O)O (relative stereo) [compound 5349]
IC50 [5]: 250 nM
IC50 [1]: 92 nM
IC50 ([2]; DPP2): 610 nM
IC50 [4]: 14000 nM

SMILES: CC1(C)CN[C@@H]1C(=O)N1CCC[C@H]1B(O)O (relative stereo) [compound 5362]
IC50 [1]: 0.5 nM
IC50 ([2]; DPP2): 67 nM

SMILES: CC1(C)CCN[C@@H]1C(=O)N1CCC[C@H]1B(O)O (relative stereo) [compound 5363]
IC50 ([2]; DPP2): 110 nM

IC50 (macrophages): 11000 nM
SMILES: C[C@H](N)C(=S)N1CCC[C@H]1B(O)O [ARI-2243]
Average [G-CSF] at 6 hrs (G-CSF; 20 μg/animal PO): 330 pg/mL
Average [G-CSF] at 6 hrs (G-CSF; 50 μg/animal IP): 2100 pg/mL
Average [G-CSF] at 6 hrs (G-CSF; 100 μg/animal IP): 2400 pg/mL
Average [G-CSF] at 6 hrs (G-CSF; 300 μg/animal IP): 4400 pg/mL

SMILES: CC(C)(C)[C@H](N)C(=O)N1CCC[C@H]1B(O)O [ARI-4175]
Average [G-CSF] at 6 hrs (G-CSF; 20 μg/animal PO): 19000 pg/mL
Average [G-CSF] at 6 hrs (G-CSF; 20 μg/animal SC): 65000 pg/mL

SMILES: N[C@H](C(=O)N1CCC[C@H]1B(O)O)C12CC3CC(CC(F)(C3)C1)C2 [ARI-5870]
IC50 ([2]; DPP2): 58 nM

SMILES: NC(N)=NCCC[C@H](N)C(=O)N1CCC[C@H]1B(O)O [Arg-boroPro]
Average [G-CSF] at 6 hrs (G-CSF; 20 μg/animal PO): 320 pg/mL
Average [G-CSF] at 6 hrs (G-CSF; 20 μg/animal SC): 160 pg/mL
Average [G-CSF] at 6 hrs (G-CSF; 200 μg/animal PO): 930 pg/mL
Average [G-CSF] at 6 hrs (G-CSF; 200 μg/animal SC): 670 pg/mL
Average [G-CSF] at 6 hrs (G-CSF; 2000 μg/animal PO): 3500 pg/mL
Average [G-CSF] at 6 hrs (G-CSF; 2000 μg/animal SC): 31000 pg/mL

SMILES: N[C@@H](CC(=O)N1CCn2c(nnc2C(F)(F)F)C1)Cc1cc(F)c(F)cc1F [Sitagiptin, reference compound]
Average [G-CSF] at 6 hrs (G-CSF; 100 μg/animal SC): 100 pg/mL
Average [G-CSF] at 6 hrs (G-CSF; 1000 μg/animal PO): 340 pg/mL
Average [G-CSF] at 6 hrs (G-CSF; 2000 μg/animal SC): 950 pg/mL

SMILES: CC(C)[C@H](N)C(=O)N1CCC[C@H]1B(O)O [Val-boroPro, Valine-boroProline]
IC50 (macrophages): 49 nM
IC50 (RAW 264.7 WT cells): 98 nM
IC50 (MV4; 11 Luc-Neo): 60 nM
IC50 (THP-1 sgGFP): 168 nM
increase of MTD dose on addition of a cPLA2 inhibitor [6]: at least 20 fold
tumor regression in combination with celecoxib ([7]; 20 microgram dose of Val-boroPro plus celecoxib, individual animal curves): facilitated the achievement of tumor regression
antitumor activity in combination with celecoxib ([7]; Val-boroPro plus celecoxib, tumor volumes over time): increased the antitumor activity of Val-boroPro markedly (statistically significantly) and in a dose-dependent manner
partial response [8]: 3 patients
Average [G-CSF] at 6 hrs (G-CSF; 20 μg/animal PO): 55000 pg/mL
Average [G-CSF] at 6 hrs (G-CSF; 20 μg/animal SC): 97000 pg/mL

SMILES: Cc1ccc(-c2cc(C(F)(F)F)nn2-c2ccc(S(N)(=O)=O)cc2)cc1 [celecoxib]
tumor growth rates ([7]; celecoxib alone, various concentrations, versus vehicle): no observed differences in tumor growth rates compared to control

IC50 (macrophages): > 10000 nM
SMILES: C[C@H](N)C(=O)N1CCC[C@H]1B(O)O [compound 1129]

IC50 (macrophages): 23 nM
SMILES: N[C@H](C(=O)N1CCC[C@H]1B(O)O)C1CCCCC1 [compound 1797, Crg-boroPro]
Average [G-CSF] at 6 hrs (G-CSF; 20 μg/animal PO): 20000 pg/mL

IC50 (macrophages): > 20000 nM
SMILES: CC(C)[C@H](N)C(=S)N1CCC[C@H]1B(O)O [compound 2401]

IC50 (macrophages): > 10000 nM
SMILES: CN(CB(O)O)C(=O)[C@@H](N)CCC(=O)O [compound 2408]

IC50 (macrophages): 21 nM
SMILES: CC[C@H](C)[C@H](N)C(=O)N1CCC[C@H]1B(O)O [compound 4316, theoric-boroPro]
Average [G-CSF] at 6 hrs (G-CSF; 20 μg/animal PO): 5000 pg/mL

IC50 (macrophages): 13 nM
SMILES: CC[C@@H](C)[C@H](N)C(=O)N1CCC[C@H]1B(O)O [compound 4317]

SMILES: N[C@H](C(=O)N1CCC[C@H]1B(O)O)C1(C(F)(F)F)CC1 [compound 4949]
IC50 ([2]; DPP2): 39 nM

SMILES: N[C@@H](CCC(=O)O)C(=O)N1CCC[C@H]1B(O)O [compound 8120, Glu-boroPro]
Average [G-CSF] at 6 hrs (G-CSF; 20 μg/animal PO): 340 pg/mL
Average [G-CSF] at 6 hrs (G-CSF; 200 μg/animal PO): 160 pg/mL
Average [G-CSF] at 6 hrs (G-CSF; 200 μg/animal SC): 210 pg/mL
Average [G-CSF] at 6 hrs (G-CSF; 2000 μg/animal PO): 2300 pg/mL
Average [G-CSF] at 6 hrs (G-CSF; 2000 μg/animal SC): 16000 pg/mL
